Read-outs that look alike come from different tables or passages of the source.
Assays:
MV4-11 hAML xenograft = test: Human AML cell line mouse xenograft model; format: in vivo; conditions: 5 mg/kg i.v. daily M to F for 18 days in β-HPCD, MV4-11-engrafted NSG mice, p<0.05
EOL-1 = test: Cell viability, panel of AML cell lines; format: cell-based; conditions: Homo sapiens, EOL1, EOL-1 cells
Procedure: (§1) Representative human AML cell lines (FIG. 2A; upper and lower panels) HL60/VCR and (FIG. 2B; upper and lower panels) OCI-AML2 were treated with SACLAC for 24 and 48 hours. Viability was assessed by MTS assay at 24 and 48 hours and apoptosis was assessed by flow cytometry at 48 hours. Upper panels represent % viability and lower panels indicate % apoptosis.
(§2) Two representative human-derived AML cell lines, HL60/VCR and OCI-AML2, are shown. These studies have been expanded to a large panel of additional human AML cell lines (n=30, Table 1).

MV4-11 = test: Cell viability, panel of AML cell lines; format: cell-based; conditions: Homo sapiens, MV4-11 cells
Procedure: as §1, §2

NOMO1 = test: Cell viability, panel of AML cell lines; format: cell-based; conditions: Homo sapiens, NOMO-1, NOMO1 cells
Procedure: as §1, §2

OCI-M2 = test: Cell viability, panel of AML cell lines; format: cell-based; conditions: Homo sapiens
Procedure: as §1, §2

KGI/ABTR = test: Cell viability, panel of AML cell lines; format: cell-based; conditions: Homo sapiens, KGI/ABTR cells
Procedure: as §1, §2

OCI-AML4 = test: Cell viability, panel of AML cell lines; format: cell-based; conditions: Homo sapiens, OCI-AML4 cells
Procedure: as §1, §2

U937 = test: Cell viability, panel of AML cell lines; format: cell-based; conditions: Homo sapiens, U-937, U937 cells
Procedure: as §1, §2

MOLM-14 = test: Cell viability, panel of AML cell lines; format: cell-based; conditions: Homo sapiens, MOLM-14 cells
Procedure: as §1, §2

KGI = test: Cell viability, panel of AML cell lines; format: cell-based; conditions: Homo sapiens, KGI cells
Procedure: as §1, §2

HEL = test: Cell viability, panel of AML cell lines; format: cell-based; conditions: Homo sapiens, HEL cells
Procedure: as §1, §2

HL60/ABTR = test: Cell viability, panel of AML cell lines; format: cell-based; conditions: Homo sapiens, HL-60, HL60/ABTR cells (drug resistant variant)
Procedure: as §1, §2

[1] = test system: normal samples (PBMCs and/or CD34+ cells); test: Viability of normal samples, MTS and Cell Titer Glo (FIG. 4, Table 2); format: cell-based; conditions: PBMC
Procedure: (§3) AML cell lines and normal samples (PBMCs and/or CD34+ cells) were treated for 24 hours with SACLAC (FIG. 4A-7 cell lines) and similar AC inhibitor SABRAC (2-bromo-N-((2S,3R)-1,3-dihydroxyoctadecan-2-yl)acetamide) (FIG. 4B-four cell lines). Viability was assessed by MTS and Cell Titer Glo viability assays. EC50 values (FIG. 4C) were graphed to visualize fold-change between AML and normal cells with treatment of each compound. […] Cells tested for SABRAC were HL60/VCR and OCI-AML2 AML cell lines and two normal PBMC control samples (PBMC1 and PBMC2). The same four cell types were tested for SACLAC, as well as the AML cell line THP-1 and two normal CD34+ cell control samples (CD34+1 and CD34+2).
(§4) Next, we tested the toxicity of SACLAC and a similar published AC inhibitor SABRAC^17 to normal hematopoietic cells to ensure that AML cells are selectively targeted by the compound (FIG. 4A). […] This degree of selectivity was unexpected but extremely important for potential clinical use. […] This remarkable increase in selectivity is a surprising discovery that greatly exceeds the predicted similarity in compound behavior that one may expect with a simple substitution of one halogen for another (Cl for Br).

[2] = test system: AML cell lines (HL60/VCR, OCI-AML2, THP-1); test: Viability of AML cell lines, MTS and Cell Titer Glo (FIGS. 2, 4, Table 2); format: cell-based, human; conditions: for EC50: Homo sapiens, 24 h
Procedure: as §1, §3, §4

[3] = test system: primary AML patient samples; test: Colony formation of primary AML patient cells; format: cell-based, human; conditions: over several days
Procedure: Multiple primary patient (Pt) AML cells were treated with various doses of SACLAC and assayed for apoptosis at 48 hours and colony formation over several days. […] The ordinate represents Colonies (as % of control) and the abscissa represents the concentration of SACLAC (μM). Unt=untreated; DMSO=dimethyl sulfoxide vehicle control.
Further, effects on patient samples strongly support the potential for clinical relevance of SACLAC. […] Based on the data presented here, we propose that use of SACLAC for treatment of AML is novel and clinically promising.

[4] = test system: S1P and ceramide in HL60/VCR and OCI-AML2; test: Lipid metabolites by mass spectrometry in AML cell lines; format: cell-based, human; conditions: HL60/VCR and OCI-AML2, 24 hours
Procedure: Representative human AML cell lines (FIG. 3A; upper and lower panels) HL60/VCR and (FIG. 3B; upper and lower panels) OCI-AML2 were treated with SACLAC for 24 hours. Concentrations of lipid metabolites were determined by mass spectrometry. *, p<0.05; **, p<0.01 (Student's t-test). Upper panels represent Lipid in pmol/mg protein and lower panels represent Ceramide in pmol/mg protein.
We also characterized lipid changes in response to SACLAC treatment in order to provide further evidence of potent AC inhibition (FIGS. 3A-3B). […] Thus, the inhibitor blocks a common mechanism of ceramide detoxification in AML and is likely to provide therapeutic benefit by facilitating ceramide accumulation and apoptotic death of these proliferative cells.

## CCCCCCCCCCCCCCC[C@@H](O)[C@H](CO)NC(=O)CCl [SACLAC, 2-chloro-N-((2S,3R)-1,3-dihydroxyoctadecan-2-yl)acetamide]
MV4-11 hAML xenograft
  leukemic burden (human CD45+ cells, YFP expression, percent double positive cells): reduced leukemic burden
EOL-1; 24 h, read-out: EC50 24 h
  EC50: 1 µM
EOL-1; 48 h, read-out: EC50 48 h
  EC50: 1.1 µM
MV4-11; 24 h, read-out: EC50 24 h
  EC50: 2.3 µM
MV4-11; 48 h, read-out: EC50 48 h
  EC50: 1.3 µM
NOMO1; 24 h, read-out: EC50 24 h
  EC50: 1.1 µM
NOMO1; 48 h, read-out: EC50 48 h
  EC50: 0.8 µM
OCI-M2; OCI-M2, 24 h, read-out: EC50 24 h
  EC50: > 10 µM
OCI-M2; OCI-M2, 48 h, read-out: EC50 48 h
  EC50: > 10 µM
OCI-M2; OCI-M2 cells, 10 μM, read-out: viable cells at the highest tested dose
  viability at 10 µM: 60%
KGI/ABTR; 24 h, read-out: EC50 24 h
  EC50: 5.4 µM
KGI/ABTR; 48 h, read-out: EC50 48 h
  EC50: 4.1 µM
OCI-AML4; 24 h, read-out: EC50 24 h
  EC50: 1.4 µM
OCI-AML4; 48 h, read-out: EC50 48 h
  EC50: 0.7 µM
U937; 24 h, read-out: EC50 24 h
  EC50: 1 µM
U937; 48 h, read-out: EC50 48 h
  EC50: 1.7 µM
MOLM-14; 24 h, read-out: EC50 24 h
  EC50: 0.5 µM
MOLM-14; 48 h, read-out: EC50 48 h
  EC50: 0.5 µM
KGI; 24 h, read-out: EC50 24 h
  EC50: 3.2 µM
KGI; 48 h, read-out: EC50 48 h
  EC50: 2.7 µM
HEL; 24 h, read-out: EC50 24 h
  EC50: 1.2 µM
HEL; 48 h, read-out: EC50 48 h
  EC50: 1.6 µM
HL60/ABTR; 24 h, read-out: EC50 24 h
  EC50: 2.5 µM
HL60/ABTR; 48 h, read-out: EC50 48 h
  EC50: 3 µM
[1]; 24 h, mean of normal samples (PBMCs and/or CD34+ cells), 24 hours, read-out: EC50 Normal
  EC50: 13.5 µM
[1]; 24 h, normal controls at 24 h, mean ± spread, read-out: EC50, normal controls
  EC50: 13.5 ± 7.1 µM
[1]; n=10, read-out: mean EC50, normal PMBC and CD34+ controls
  EC50: 6 µM
[2]; HL60/VCR and OCI-AML2, MTS, 24 and 48 hours, dose-dependent
  viability: reduced viability
[2]; mean of AML cell lines, 24 hours, read-out: EC50 AML
  EC50: 2.27 µM
[2]; SACLAC: HL60/VCR, OCI-AML2, THP-1, SABRAC: HL60/VCR, OCI-AML2, order of cells not given, read-out: EC50, single AML cell lines (FIG. 4A, 4B)
  EC50: 2.6 µM
[3]
  colony formation: substantially reduced colony formation
[4]
  S1P: significantly reduced S1P
  ceramide: increased ceramide

From patent US11426371B2, “Compositions and methods for treating cancer” (University of Virginia Patent Foundation, priority 2017, dated 2022)
